Tests used:
MO3-13 cells [1] = experiment: Protection of MO3-13 oligodendrocytes from Cpz toxicity; type: cell-based, human; conditions: compound at 5 μM, Cpz at 50 μM, 24 hrs, visual assessment, FIG. 2
Experimental: The protective effects of compounds […] on MO3-13 cells from Cpz toxicity were then determined. […] Cpz at a final concentration of 50 μM was solubilized in 100% ethanol was added to selected dishes with compound A1 or A2 at 5 μM in DMSO, or DMSO alone as a control.

[2] = system: myelin basic protein (MBP); experiment: Induction of myelin basic protein (MBP) production, anti-MBP slot blot of MO3-13 whole cell extracts; type: cell-based, human; conditions: FIG. 3
Experimental: Dilutions (0.1 mg/mL) of MO3-13 whole cell extracts were prepared and the proteins (5 μg) from the dilutions were blotted onto nitrocellulose membrane using a slot blotter. The non-protein sites on the blot were blocked with 2% ECL block in PBS-Tween20. Primary anti-Bov MBP was diluted in block solution at 300×. The primary antibody was incubated overnight at 4° C. with gentle shaking. The following day the blot was developed using enhanced ECL (GE Healthcare) method. Image of bound antibody were captured using Image Lab software driving a Bio-Rad ChemiDoc XRS+ image capture system.

MO3-13 cells [3] = conditions: differentiated (serum deprived 48 hrs) MO3-13 cells, increasing amounts of Cpz, 24 hrs, visual assessment by phase contrast, FIG. 1
Experimental: MO3-13 cells were plated onto 10 cm cell culture dishes and grown in DMEM containing 5% FBS. Cells were grown to 75% confluence, after which serum containing DMEM medium was replaced with FBS free DMEM. Cells were grown for 48 hrs under serum deprived conditions.

[4] = MO3-13 cells treated with Cpz (50 μM) plus compound (5 μM)
[5] = MO3-13 cells treated with compound alone (5 μM)

Compound | protection of human oligodendrocytes (MO3-13) against the toxicity of Cpz (MO3-13 cells [1]) | MBP bound by anti-MBP [2, 4] | MBP bound by anti-MBP [2, 5] | Cpz toxicity to MO3-13 cells (MO3-13 cells [3]) | anti-MBP antibody binding as compared with non-treated (DMSO) cells ([2]; MO3-13 cells treated with Cpz (50 μM))
O=c1cc(-c2ccccc2)cc(-c2ccccc2)o1 [A3, 4,6-diphenyl-2H-pyran-2-one] | protection | significantly higher | significantly higher |  | 
O=C(NN=C1CCCCC1)C(=O)NN=C1CCCCC1 [Cpz, cuprizone, reference compound] |  |  |  | toxic | reduced
O=c1cc(-c2ccccc2)cc(C2CCCCC2)o1 [compound A2, 6-cyclohexyl-4-phenyl-2H-pyran-2-one] | protection | significantly higher | significantly higher |  | 

Reference: patent publication US12220399B2, “Pharmaceutical compositions comprising one or more pyrone compounds, and their use for treating inflammatory and neurodegenerative diseases” (NeuroTheryX Canada LTD, priority 2015, dated 2025)
